Measured values as given in patent publication US10457687B2, “Aminoacid derivatives, a process for their preparation and pharmaceutical compositions containing them” (LES LABORATOIRES SERVIER, priority 2015, dated 2019).

Biological target: Mcl-1 protein (Homo sapiens, UniProt Q07820)
Test: Inhibition of Mcl-1 by the fluorescence polarisation technique (Method 1 or Method 2)
Assay type: binding
Conditions: for IC50: fluorescence polarisation, Fluorescein labelled ligand, Method 1 (not underlined) or Method 2 (underlined), read-out: IC50 (μM) Mcl-1 FP
Description: The relative binding potency of each compound was determined via Fluorescence Polarisation (FP).
An 11 point serial dilution of each compound was prepared in DMSO and 2 μl transferred into flat bottomed, low binding, 384-well plate (final DMSO concentration 5%). 38 μl of buffer (10 mM 4-(2-hydroxyethyl)-1-piperazineethanesulfonic acid [HEPES], 150 mM NaCl, 0.05% Tween 20, pH 7.4), containing the Fluorescein labelled ligand (final concentration 1 nM) and Mcl-1 protein (final concentration 5 nM) was then added.
An 11 point serial dilution of each compound was prepared in DMSO and 2 μl transferred into flat bottomed, low binding, 384-well plate (final DMSO concentration 5%). 38 μl of buffer (20 mM Na2HPO4, 1 mM EDTA, 50 mM NaCl, pH 7.4), containing the Fluorescein labelled ligand (final concentration 10 nM) and Mcl-1 protein (final concentration 10 nM) was then added.

[1] = partial inhibitors, @ 10 μM test compound

Chain of Mcl-1 protein (Q07820 whole entry): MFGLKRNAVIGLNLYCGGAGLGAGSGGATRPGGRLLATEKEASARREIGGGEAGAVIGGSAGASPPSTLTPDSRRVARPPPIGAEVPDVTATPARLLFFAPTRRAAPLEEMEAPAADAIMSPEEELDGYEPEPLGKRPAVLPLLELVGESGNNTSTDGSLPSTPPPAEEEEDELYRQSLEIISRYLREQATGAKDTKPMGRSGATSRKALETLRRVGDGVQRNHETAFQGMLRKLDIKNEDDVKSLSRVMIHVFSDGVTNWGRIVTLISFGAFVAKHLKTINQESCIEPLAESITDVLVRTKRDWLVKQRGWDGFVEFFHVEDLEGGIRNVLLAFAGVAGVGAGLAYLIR

SMILES | IC50 [µM] | also measured
CCc1sc2ncnc(NC(Cc3ccccc3)C(=O)O)c2c1-c1ccc(OCC(=O)O)c(Cl)c1C [Example 57, N-{(5Sa)-5-[4-(carboxymethoxy)-3-chloro-2-methylphenyl]-6-ethylthieno[2,3-d]pyrimidin-4-yl}-D-phenylalanine] | 0.106 | 
CCc1sc2ncnc(N[C@@H](Cc3ccccc3)C(=O)O)c2c1-c1ccc(OCCN(C)C)c(Cl)c1C [Example 58, N-((5Ra)-5-{3-chloro-4-[2-(dimethylamino)ethoxy]-2-methylphenyl}-6-ethylthieno[2,3-d]pyrimidin-4-yl)-L-phenylalanine] |  | percentage fluorescence polarisation inhibition, Mcl-1 FP [1]: 52.8% @ 10 μM
CCc1sc2ncnc(NC(Cc3ccccc3)C(=O)O)c2c1-c1ccc(OCCN(C)C)c(Cl)c1C [Example 59, N-((5Sa)-5-{3-chloro-4-[2-(dimethylamino)ethoxy]-2-methylphenyl}-6-ethylthieno[2,3-d]pyrimidin-4-yl)-L-phenylalanine] | 0.127 | 
CCc1sc2ncnc(NC(Cc3ccccc3)C(=O)O)c2c1-c1ccc(OCCCN(C)C)c(Cl)c1C [Example 60, N-((5Sa)-5-{3-chloro-4-[3-(dimethylamino)propoxy]-2-methylphenyl}-6-ethylthieno[2,3-d]pyrimidin-4-yl)-D-phenylalanine] | 0.092 | 
CCc1sc2ncnc(NC(Cc3ccccc3)C(=O)O)c2c1-c1ccc(OCCN2CCOCC2)c(Cl)c1C [Example 61, N-((5Sa)-5-{3-chloro-2-methyl-4-[2-(morpholin-4-yl)ethoxy]phenyl}-6-ethylthieno[2,3-d]pyrimidin-4-yl)-D-phenylalanine] | 0.036 | 
CCc1sc2ncnc(NC(Cc3ccccc3)C(=O)O)c2c1-c1ccc(OCCN2CCN(C)CC2)c(Cl)c1C [Example 62, N-((5Sa)-5-{3-chloro-2-methyl-4-[2-(4-methylpiperazin-1-yl)ethoxy]phenyl}-6-ethylthieno[2,3-d]pyrimidin-4-yl)-D-phenylalanine] | 0.06 | 
CCc1sc2ncnc(N[C@H](Cc3ccccc3)C(=O)O)c2c1-c1ccc(OCCN2CCN(C)CC2)c(Cl)c1C [Example 63, N-((5Ra)-5-{3-chloro-2-methyl-4-[2-(4-methylpiperazin-1-yl)ethoxy]phenyl}-6-ethylthieno[2,3-d]pyrimidin-4-yl)-D-phenylalanine] |  | percentage fluorescence polarisation inhibition, Mcl-1 FP [1]: 12.18% @ 10 μM
CCc1sc2ncnc(NC(Cc3ccccc3)C(=O)O)c2c1-c1ccc(OCCCN2CCN(C)CC2)c(Cl)c1C [Example 64, N-((5Sa)-5-{3-chloro-2-methyl-4-[3-(4-methylpiperazin-1-yl)propoxy]phenyl}-6-ethylthieno[2,3-d]pyrimidin-4-yl)-D-phenylalanine] | 0.025 | 
CCc1sc2ncnc(N[C@H](Cc3ccccc3)C(=O)O)c2c1-c1cccc(O)c1C [Example 67, N-[6-ethyl-5-(3-hydroxy-2-methylphenyl)thieno[2,3-d]pyrimidin-4-yl]-D-phenylalanine] | 2.08 | 
CCc1sc2ncnc(N[C@H](Cc3ccccc3)C(=O)O)c2c1-c1cccc(F)c1C [Example 68, N-[6-ethyl-5-(3-fluoro-2-methylphenyl)thieno[2,3-d]pyrimidin-4-yl]-D-phenylalanine] | 0.142 | 
CCc1sc2ncnc(NC(Cc3ccccc3)C(=O)O)c2c1-c1cccc(F)c1C [Example 69, N-[6-ethyl-(5Sa)-5-(3-fluoro-2-methylphenyl)thieno[2,3-d]pyrimidin-4-yl]-D-phenylalanine] | 0.109 | 
CCc1sc2ncnc(NC(Cc3ccccc3)C(=O)O)c2c1-c1cccc(F)c1C [Example 70, N-[6-ethyl-(5Ra)-5-(3-fluoro-2-methylphenyl)thieno[2,3-d]pyrimidin-4-yl]-D-phenylalanine] | 0.974 | 
CCc1sc2ncnc(NC(Cc3ccccc3)C(=O)O)c2c1-c1cccc2[nH]ccc12 [Example 73, N-[6-ethyl-(5Sa)-5-(1H-indol-4-yl)thieno[2,3-d]pyrimidin-4-yl]-D-phenylalanine] | 0.276 | 
CCc1sc2ncnc(NC(Cc3ccccc3)C(=O)O)c2c1-c1cccc2[nH]ccc12 [Example 74, N-[6-ethyl-(5Ra)-5-(1H-indol-4-yl)thieno[2,3-d]pyrimidin-4-yl]-D-phenylalanine] | 0.621 | 
CCc1sc2ncnc(NC(Cc3ccccc3)C(=O)O)c2c1-c1cccc(OC)c1C [Example 75, N-[6-ethyl-(5Sa)-5-(3-methoxy-2-methylphenyl)thieno[2,3-d]pyrimidin-4-yl]-D-phenylalanine] | 0.28 | 
CCc1sc2ncnc(NC(Cc3ccccc3)C(=O)O)c2c1-c1cccc(OC)c1C [Example 76, N-[6-ethyl-(5Ra)-5-(3-methoxy-2-methylphenyl)thieno[2,3-d]pyrimidin-4-yl]-D-phenylalanine] | 3.18 | 
CCc1sc2ncnc(N[C@H](Cc3ccccc3)C(=O)O)c2c1-c1ccnc(Cl)c1C [Example 77, N-[(5Ra)-5-(2-chloro-3-methylpyridin-4-yl)-6-ethylthieno[2,3-d]pyrimidin-4-yl]-D-phenylalanine] |  | percentage fluorescence polarisation inhibition, Mcl-1 FP (partial inhibitors, @ 200 μM test compound): 75.45% @ 200 μM
CCc1sc2ncnc(NC(Cc3ccccc3)C(=O)O)c2c1-c1ccnc(Cl)c1C [Example 78, N-[(5Sa)-5-(2-chloro-3-methylpyridin-4-yl)-6-ethylthieno[2,3-d]pyrimidin-4-yl]-D-phenylalanine] | 0.135 | 
CCc1sc2ncnc(N[C@H](Cc3ccccc3)C(=O)O)c2c1-c1cccc2ccccc12 [Example 79, N-[6-ethyl-5-(naphthalen-1-yl)thieno[2,3-d]pyrimidin-4-yl]-D-phenylalanine] | 0.429 | 
CCc1sc2ncnc(N[C@H](Cc3ccccc3)C(=O)O)c2c1-c1cccc2ncccc12 [Example 80, N-[6-ethyl-5-(quinolin-5-yl)thieno[2,3-d]pyrimidin-4-yl]-D-phenylalanine] | 0.487 | 
CCc1sc2ncnc(NC(Cc3ccccc3)C(=O)O)c2c1-c1cncc2ccccc12 [Example 81, N-[6-ethyl-(5Sa)-5-(isoquinolin-4-yl)thieno[2,3-d]pyrimidin-4-yl]-D-phenylalanine] | 20.2 | 
CCc1sc2ncnc(NC(Cc3ccccc3)C(=O)O)c2c1-c1cncc2ccccc12 [Example 82, N-[6-ethyl-(5Ra)-5-(isoquinolin-4-yl)thieno[2,3-d]pyrimidin-4-yl]-D-phenylalanine] | 1.11 | 
CCc1sc2ncnc(NC(Cc3ccccc3)C(=O)O)c2c1-c1cccc2ccn(C)c12 [Example 83, N-[6-ethyl-(5Sa)-5-(1-methyl-1H-indol-7-yl)thieno[2,3-d]pyrimidin-4-yl]-D-phenylalanine] | 0.258 | 
CCc1sc2ncnc(NC(Cc3ccccc3)C(=O)O)c2c1-c1cccc2ccn(C)c12 [Example 84, N-[6-ethyl-(5Ra)-5-(1-methyl-1H-indol-7-yl)thieno[2,3-d]pyrimidin-4-yl]-D-phenylalanine] | 4.02 | 
CCc1sc2ncnc(N[C@H](Cc3ccccc3)C(=O)O)c2c1-c1cccc2c1cnn2C [Example 87, N-[6-ethyl-5-(1-methyl-1H-indazol-4-yl)thieno[2,3-d]pyrimidin-4-yl]-D-phenylalanine] |  | inhibition at 7.4 µM (partial inhibitors, @ 7.4 μM test compound, read-out: percentage fluorescence polarisation inhibition, Mcl-1 FP): 62.6%
CCc1sc2ncnc(NC(Cc3ccccc3)C(=O)O)c2c1-c1cccc2cnn(C)c12 [Example 88, N-[6-ethyl-(5Sa)-5-(1-methyl-1H-indazol-7-yl)thieno[2,3-d]pyrimidin-4-yl]-D-phenylalanine] | 1.23 | 
